{"source": "paper PMC8037182", "about": "“Solvothermal Synthesis of Multiple Dihydropyrimidinones at a Time as Inhibitors of Eg5” (Molecules, 2021)", "key": {"Hela cell line": {"test_system": "Hela cell line", "assay": "Cytotoxicity MTS assay, Hela cell line", "type": "cell-based", "conditions": "for OD490 value, Mean / OD490 value, Well 1 / OD490 value, Well 2 / OD490 value, Well 3: Hela cell line, MTS", "procedure,_shortened": "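IC50 reflects non-linear regression of percent cell viability on compound concentration, tested from 0.5 to 100 µM final during a 24 h exposure. Viability was read by MTS at 490 nm; monastrol served as positive control and 0.025% DMSO as blank.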"}, "Eg5 motor protein": {"target": "T1, Eg5 motor protein (Homo sapiens, UniProt P52732)", "T1 construct": "Eg5 motor domain (amino acids 1-368) was cloned into pET22b; His-tag (C); made in house; host or cells: Escherichia coli BL21 (DE3)", "T1 sequence (P52732 1-368)": "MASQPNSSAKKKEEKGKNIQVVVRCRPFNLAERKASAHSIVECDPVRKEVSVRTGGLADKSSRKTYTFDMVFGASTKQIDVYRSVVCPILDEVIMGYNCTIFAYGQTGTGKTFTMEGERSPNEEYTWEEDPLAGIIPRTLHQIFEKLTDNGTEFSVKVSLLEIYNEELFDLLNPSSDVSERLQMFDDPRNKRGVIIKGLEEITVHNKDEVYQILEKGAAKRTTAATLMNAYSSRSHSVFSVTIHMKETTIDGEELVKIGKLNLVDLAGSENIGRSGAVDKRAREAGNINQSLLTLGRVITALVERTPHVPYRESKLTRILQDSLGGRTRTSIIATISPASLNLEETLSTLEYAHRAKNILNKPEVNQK", "assay": "Lineweaver–Burk plot analysis of Eg5 ATPase inhibition", "type": "biochemical", "protocol": "Assays followed methods similar to that described above for the primary Eg5 motor protein ATPase assay. For either study, compound C9 were tested at 60.50 μM, 30.25 μM, 15.13 μM, 0 μM. ATP concentration was varied from 52 μM to 417 μM. The enzyme concentration tested was 100 nM. All conditions were performed in three independent duplicate experiments. The data were analyzed with GraphPad Prism 6.02 software.\nFigure 1 Steady-state inhibition of Eg5 by C9. […] Lines represent a curve fit of the global data set to a mixed-type inhibition model."}}}
{"molecule": "CCOc1ccccc1C1NC(=S)NC(C)=C1C(=O)Nc1ccc(Cl)cc1", "note": "(stereo not shown) [C9]", "values": [{"measurement": "OD490 value, Mean", "setting": "Hela cell line; 0.5μM, first assay", "result": 2.5086}, {"measurement": "OD490 value, Well 1", "setting": "Hela cell line; 0.5μM, first assay", "result": 2.5337}, {"measurement": "OD490 value, Well 2", "setting": "Hela cell line; 0.5μM, first assay", "result": 2.5147}, {"measurement": "OD490 value, Well 3", "setting": "Hela cell line; 0.5μM, first assay", "result": 2.4773}, {"measurement": "OD490 value, Mean", "setting": "Hela cell line; 0.5μM, second assay", "result": 2.5027}, {"measurement": "OD490 value, Well 1", "setting": "Hela cell line; 0.5μM, second assay", "result": 2.5377}, {"measurement": "OD490 value, Well 2", "setting": "Hela cell line; 0.5μM, second assay", "result": 2.5102}, {"measurement": "OD490 value, Well 3", "setting": "Hela cell line; 0.5μM, second assay", "result": 2.4603}, {"measurement": "OD490 value, Mean", "setting": "Hela cell line; 0.5μM, third assay", "result": 2.5209}, {"measurement": "OD490 value, Well 1", "setting": "Hela cell line; 0.5μM, third assay", "result": 2.7845}, {"measurement": "OD490 value, Well 2", "setting": "Hela cell line; 0.5μM, third assay", "result": 2.5536}, {"measurement": "OD490 value, Well 3", "setting": "Hela cell line; 0.5μM, third assay", "result": 2.2245}, {"measurement": "OD490 value, Mean", "setting": "Hela cell line; 1μM, first assay", "result": 2.3583}, {"measurement": "OD490 value, Well 1", "setting": "Hela cell line; 1μM, first assay", "result": 2.1436}, {"measurement": "OD490 value, Well 2", "setting": "Hela cell line; 1μM, first assay", "result": 2.5164}, {"measurement": "OD490 value, Well 3", "setting": "Hela cell line; 1μM, first assay", "result": 2.4149}, {"measurement": "OD490 value, Mean", "setting": "Hela cell line; 1μM, second assay", "result": 2.3955}, {"measurement": "OD490 value, Well 1", "setting": "Hela cell line; 1μM, second assay", "result": 2.2145}, {"measurement": "OD490 value, Well 2", "setting": "Hela cell line; 1μM, second assay", "result": 2.4935}, {"measurement": "OD490 value, Well 3", "setting": "Hela cell line; 1μM, second assay", "result": 2.4784}, {"measurement": "OD490 value, Mean", "setting": "Hela cell line; 1μM, third assay", "result": 2.4734}, {"measurement": "OD490 value, Well 1", "setting": "Hela cell line; 1μM, third assay", "result": 2.4685}, {"measurement": "OD490 value, Well 2", "setting": "Hela cell line; 1μM, third assay", "result": 2.5532}, {"measurement": "OD490 value, Well 3", "setting": "Hela cell line; 1μM, third assay", "result": 2.3985}, {"measurement": "OD490 value, Mean", "setting": "Hela cell line; 10μM, first assay", "result": 2.3086}, {"measurement": "OD490 value, Well 1", "setting": "Hela cell line; 10μM, first assay", "result": 2.1660}, {"measurement": "OD490 value, Well 2", "setting": "Hela cell line; 10μM, first assay", "result": 2.3778}, {"measurement": "OD490 value, Well 3", "setting": "Hela cell line; 10μM, first assay", "result": 2.3820}, {"measurement": "OD490 value, Mean", "setting": "Hela cell line; 10μM, second assay", "result": 2.1859}, {"measurement": "OD490 value, Well 1", "setting": "Hela cell line; 10μM, second assay", "result": 2.2135}, {"measurement": "OD490 value, Well 2", "setting": "Hela cell line; 10μM, second assay", "result": 2.1456}, {"measurement": "OD490 value, Well 3", "setting": "Hela cell line; 10μM, second assay", "result": 2.1987}, {"measurement": "OD490 value, Mean", "setting": "Hela cell line; 10μM, third assay", "result": 2.4047}, {"measurement": "OD490 value, Well 1", "setting": "Hela cell line; 10μM, third assay", "result": 2.2123}, {"measurement": "OD490 value, Well 2", "setting": "Hela cell line; 10μM, third assay", "result": 2.5652}, {"measurement": "OD490 value, Well 3", "setting": "Hela cell line; 10μM, third assay", "result": 2.4365}, {"measurement": "OD490 value, Mean", "setting": "Hela cell line; 25μM, first assay", "result": 1.8211}, {"measurement": "OD490 value, Well 1", "setting": "Hela cell line; 25μM, first assay", "result": 1.4666}, {"measurement": "OD490 value, Well 2", "setting": "Hela cell line; 25μM, first assay", "result": 1.9622}, {"measurement": "OD490 value, Well 3", "setting": "Hela cell line; 25μM, first assay", "result": 2.0346}, {"measurement": "OD490 value, Mean", "setting": "Hela cell line; 25μM, second assay", "result": 1.8416}, {"measurement": "OD490 value, Well 1", "setting": "Hela cell line; 25μM, second assay", "result": 1.7589}, {"measurement": "OD490 value, Well 2", "setting": "Hela cell line; 25μM, second assay", "result": 1.8637}, {"measurement": "OD490 value, Well 3", "setting": "Hela cell line; 25μM, second assay", "result": 1.9021}, {"measurement": "OD490 value, Mean", "setting": "Hela cell line; 25μM, third assay", "result": 1.8662}, {"measurement": "OD490 value, Well 1", "setting": "Hela cell line; 25μM, third assay", "result": 1.7769}, {"measurement": "OD490 value, Well 2", "setting": "Hela cell line; 25μM, third assay", "result": 1.8252}, {"measurement": "OD490 value, Well 3", "setting": "Hela cell line; 25μM, third assay", "result": 1.9965}, {"measurement": "OD490 value, Mean", "setting": "Hela cell line; 50μM, first assay", "result": 1.6538}, {"measurement": "OD490 value, Well 1", "setting": "Hela cell line; 50μM, first assay", "result": 1.2953}, {"measurement": "OD490 value, Well 2", "setting": "Hela cell line; 50μM, first assay", "result": 1.8006}, {"measurement": "OD490 value, Well 3", "setting": "Hela cell line; 50μM, first assay", "result": 1.8654}, {"measurement": "OD490 value, Mean", "setting": "Hela cell line; 50μM, second assay", "result": 1.6346}, {"measurement": "OD490 value, Well 1", "setting": "Hela cell line; 50μM, second assay", "result": 1.5694}, {"measurement": "OD490 value, Well 2", "setting": "Hela cell line; 50μM, second assay", "result": 1.6357}, {"measurement": "OD490 value, Well 3", "setting": "Hela cell line; 50μM, second assay", "result": 1.6987}, {"measurement": "OD490 value, Mean", "setting": "Hela cell line; 50μM, third assay", "result": 1.6911}, {"measurement": "OD490 value, Well 1", "setting": "Hela cell line; 50μM, third assay", "result": 1.6532}, {"measurement": "OD490 value, Well 2", "setting": "Hela cell line; 50μM, third assay", "result": 1.7755}, {"measurement": "OD490 value, Well 3", "setting": "Hela cell line; 50μM, third assay", "result": 1.6445}, {"measurement": "OD490 value, Mean", "setting": "Hela cell line; 100μM, first assay", "result": 1.1310}, {"measurement": "OD490 value, Well 1", "setting": "Hela cell line; 100μM, first assay", "result": 0.9154}, {"measurement": "OD490 value, Well 2", "setting": "Hela cell line; 100μM, first assay", "result": 1.2917}, {"measurement": "OD490 value, Well 3", "setting": "Hela cell line; 100μM, first assay", "result": 1.1859}, {"measurement": "OD490 value, Mean", "setting": "Hela cell line; 100μM, second assay", "result": 1.0983}, {"measurement": "OD490 value, Well 1", "setting": "Hela cell line; 100μM, second assay", "result": 1.1234}, {"measurement": "OD490 value, Well 2", "setting": "Hela cell line; 100μM, second assay", "result": 1.1125}, {"measurement": "OD490 value, Well 3", "setting": "Hela cell line; 100μM, second assay", "result": 1.0589}, {"measurement": "OD490 value, Mean", "setting": "Hela cell line; 100μM, third assay", "result": 1.1051}, {"measurement": "OD490 value, Well 1", "setting": "Hela cell line; 100μM, third assay", "result": 1.0232}, {"measurement": "OD490 value, Well 2", "setting": "Hela cell line; 100μM, third assay", "result": 1.1136}, {"measurement": "OD490 value, Well 3", "setting": "Hela cell line; 100μM, third assay", "result": 1.1784}, {"measurement": "IC50", "setting": "Hela cell line; Homo sapiens, HeLa, 24 h, MTS assay, 24 h exposure", "result": 75.6, "unit": "µM"}, {"measurement": "Slope of the Lineweaver-Burk plot, Mean", "setting": "Eg5 motor protein; C9 15.13 uM", "result": 0.649}, {"measurement": "OD630 Value Mean", "setting": "Eg5 motor protein; C9 15.13 uM, ATP 0.052 mM", "result": 0.142}, {"measurement": "OD630 Value Mean", "setting": "Eg5 motor protein; C9 15.13 uM, ATP 0.104 mM", "result": 0.177}, {"measurement": "OD630 Value Mean", "setting": "Eg5 motor protein; C9 15.13 uM, ATP 0.209 mM", "result": 0.199}, {"measurement": "OD630 Value Mean", "setting": "Eg5 motor protein; C9 15.13 uM, ATP 0.313 mM", "result": 0.226}, {"measurement": "OD630 Value Mean", "setting": "Eg5 motor protein; C9 15.13 uM, ATP 0.417 mM", "result": 0.268}, {"measurement": "Slope of the Lineweaver-Burk plot, Mean", "setting": "Eg5 motor protein; C9 30.25 uM", "result": 0.942}, {"measurement": "OD630 Value Mean", "setting": "Eg5 motor protein; C9 30.25 uM, ATP 0.052 mM", "result": 0.126}, {"measurement": "OD630 Value Mean", "setting": "Eg5 motor protein; C9 30.25 uM, ATP 0.104 mM", "result": 0.155}, {"measurement": "OD630 Value Mean", "setting": "Eg5 motor protein; C9 30.25 uM, ATP 0.209 mM", "result": 0.174}, {"measurement": "OD630 Value Mean", "setting": "Eg5 motor protein; C9 30.25 uM, ATP 0.313 mM", "result": 0.197}, {"measurement": "OD630 Value Mean", "setting": "Eg5 motor protein; C9 30.25 uM, ATP 0.417 mM", "result": 0.231}, {"measurement": "Slope of the Lineweaver-Burk plot, Mean", "setting": "Eg5 motor protein; C9 60.50 uM", "result": 1.374}, {"measurement": "OD630 Value Mean", "setting": "Eg5 motor protein; C9 60.5 uM, ATP 0.052 mM", "result": 0.114}, {"measurement": "OD630 Value Mean", "setting": "Eg5 motor protein; C9 60.5 uM, ATP 0.104 mM", "result": 0.138}, {"measurement": "OD630 Value Mean", "setting": "Eg5 motor protein; C9 60.5 uM, ATP 0.209 mM", "result": 0.156}, {"measurement": "OD630 Value Mean", "setting": "Eg5 motor protein; C9 60.5 uM, ATP 0.313 mM", "result": 0.171}, {"measurement": "OD630 Value Mean", "setting": "Eg5 motor protein; C9 60.5 uM, ATP 0.417 mM", "result": 0.198}, {"measurement": "type of Eg5 inhibition", "setting": "Eg5 motor protein; Lineweaver–Burk plot, ATP varied 52–417 μM", "result": "mixed-type Eg5 inhibitor"}, {"measurement": "Ki", "setting": "Eg5 motor protein; secondary plot of Lineweaver–Burk plot, slope versus concentration", "result": 15.7, "unit": "µM"}, {"measurement": "melting point", "result": "253 to 257", "unit": "°C"}]}
